This is an account of results in US6482990B1, “Prostaglandin E analogues” (Taisho Pharmaceutical Co., Ltd., priority 1999, dated 2002).

This test relates to human vascular smooth muscle cells. Kind of test: DNA synthesis inhibition activity (3H-thymidine intake) in human vascular smooth muscle cells. In kind it is cell-based. Conditions: for IC50: vascular cells derived from normal human aorta, 24 hours culture with 3H-thymidine, test compound as ethanol solution, compared with vehicle-treated control; for inhibiting activity on the growth of human vascular smooth muscle cells: conclusion in words from Table 2. How it is done:
Determination of DNA synthesis inhibition activity of PGE1 analogs to human vascular smooth muscle cells
On a 24 well-plate (manufactured by Corning Co.), 1×10^4 cells/well of quintic culture cells of vascular cells derived from normal human aorta (produced by Kurabo Co.) were inoculated and cultured for 2 days. The medium was exchanged from the growth medium (SG2: produced by Kurabo Co.) to the basal medium (SB2: produced by Kurabo Co.), and cultured for 24 hours, to which was added the growth medium (SG2) containing an ethanol solution of the test compound. ^3H-thymidine (produced by Daiichi Chemicals Co.) was added in an amount of 0.01 mci/well and, after culturing for 24 hours, the cultured supernatant was removed by suction, followed by washing with a phosphate buffer solution (PBS).
5% Trichloroacetic acid (TCA) was added and, after allowing to stand at 4° C. for 20 minutes, the mixture was washed once with TCA. The mixture was washed with PBS, and dissolved in 0.5 N KOH. Intake of ^3H-thymidine was determined using 20 μl of KOH dissolving the cells which incorporated ^3H-thymidine in the nucleus by means of a liquid scintillation counter (manufactured by Hewlett-Packard Co.).

Regarding `COC(=O)/C=C/CCCCC1C(=O)CC(O)C1C#CC(O)CCc1ccccc1` (centres unmarked) [Comparative Compound, (2E)-18,19,20-Trinor-17-phenyl-2,3,13,14-tetradehydro-PGE1 methyl ester, reference compound], the IC50 is 4.36 µM. On to `O=C1CC(O)C(C=CC(O)CCc2ccccc2)C1CCCc1ccc(C(F)(F)F)cc1` (centres unmarked) [Compound 18, 2-Decarboxy-2,3,4,18,19,20-hexanor-5-(4-trifluoromethylphenyl)-17-phenyl-PGE1], for which the “inhibiting activity on the growth of human vascular smooth muscle cells” value is reported as “high inhibiting activity” and the IC50 is 0.66 µM. On the same counts, the results for `Cc1ccc(CCCC2C(=O)CC(O)C2C=CC(O)CCc2ccccc2)cc1` (centres unmarked) [Compound 29, 2-Decarboxy-2,3,4,18,19,20-hexanor-5-(4-methylphenyl)-17-phenyl-PGE1] are “high inhibiting activity” and 0.73 µM.
